Patent US8449898B2 (priority 2007, dated 2013)
Like-named read-outs stand apart in the source and are kept apart here.

Key:
[1] = test system: Phytophthora infestans (the causal agent of tomato late blight); assay: whole plant or invertebrate; type: in vivo; details: Phytophthora infestans
[2] = test system: Pseudoperonospora cubensis (the causal agent of cucumber downy mildew); assay: Test B: cucumber downy mildew, preventive spray on cucumber seedlings; type: in vivo; details: Pseudoperonospora cubensis; for pest or weed control at 10 µg/mL: component (b) alone 10 ppm (Compound 1 0 ppm); for pest or weed control at 40 µg/mL: component (b) alone 40 ppm (Compound 1 0 ppm); for pest or weed control at 200 µg/mL: component (b) alone 200 ppm (Compound 1 0 ppm)
[3] = Compound 214 alone, read-out: CDM Obsd
[4] = Compound 214 alone, read-out: CDM Obsd (observed effect, cucumber downy mildew)

**Q.** How did the pest or weed control at 10 ppm ([1]; read-out: TLB Obsd (observed effect, tomato late blight), component (b) alone, 10 ppm) turn out when CCCOC(=O)NCCCN(C)C [propamocarb] was run?
**A.** 0%

**Q.** And the pest or weed control at 40 ppm ([1]; read-out: TLB Obsd (observed effect, tomato late blight), component (b) alone, 40 ppm)?
**A.** 0%

**Q.** And the pest or weed control at 200 ppm ([1]; read-out: TLB Obsd (observed effect, tomato late blight), component (b) alone, 200 ppm)?
**A.** 0%

**Q.** What about the pest or weed control at 1000 ppm ([1]; read-out: TLB Obsd (observed effect, tomato late blight), component (b) alone, 1000 ppm) of the same molecule?
**A.** 38%

**Q.** What about the pest or weed control at 5000 ppm ([1]; read-out: TLB Obsd (observed effect, tomato late blight), component (b) alone, 5000 ppm) of the same molecule?
**A.** 92%

**Q.** What about the pest or weed control at 10 ppm ([1]; read-out: TLB Obsd, Table D, component (b) alone at 10 ppm) of the same molecule?
**A.** 6%

**Q.** What about the pest or weed control at 40 ppm ([1]; read-out: TLB Obsd, Table D, component (b) alone at 40 ppm) of the same molecule?
**A.** 6%

**Q.** What about the pest or weed control at 200 ppm ([1]; read-out: TLB Obsd, Table D, component (b) alone at 200 ppm) of the same molecule?
**A.** 19%

**Q.** And the pest or weed control at 1000 ppm ([1]; read-out: TLB Obsd, Table D, component (b) alone at 1000 ppm)?
**A.** 57%

**Q.** And the pest or weed control at 5000 ppm ([1]; read-out: TLB Obsd, Table D, component (b) alone at 5000 ppm)?
**A.** 77%

**Q.** And the pest or weed control at 10 ppm ([2]; Table D, component (b) alone at 10 ppm, read-out: CDM Obsd)?
**A.** 47%

**Q.** What about the pest or weed control at 40 ppm ([2]; Table D, component (b) alone at 40 ppm, read-out: CDM Obsd) of the same molecule?
**A.** 47%

**Q.** And the pest or weed control at 200 ppm ([2]; Table D, component (b) alone at 200 ppm, read-out: CDM Obsd)?
**A.** 58%

**Q.** What about the pest or weed control at 1000 ppm ([2]; Table D, component (b) alone at 1000 ppm, read-out: CDM Obsd) of the same molecule?
**A.** 76%

**Q.** What about the pest or weed control at 5000 ppm ([2]; Table D, component (b) alone at 5000 ppm, read-out: CDM Obsd) of the same molecule?
**A.** 98%

**Q.** And the pest or weed control at 10 µg/mL ([2]; read-out: CDM Obsd)?
**A.** 47%

**Q.** What about the pest or weed control at 40 µg/mL ([2]; read-out: CDM Obsd) of the same molecule?
**A.** 47%

**Q.** What about the pest or weed control at 200 µg/mL ([2]; read-out: CDM Obsd) of the same molecule?
**A.** 94%

**Q.** And the pest or weed control at 1000 µg/mL ([2]; component (b) alone 1000 ppm (Compound 1 0 ppm), read-out: CDM Obsd)?
**A.** 100%

**Q.** And the pest or weed control at 5000 µg/mL ([2]; component (b) alone 5000 ppm (Compound 1 0 ppm), read-out: CDM Obsd)?
**A.** 100%

**Q.** What about the pest or weed control at 10 ppm ([2]; component (b) alone, 10 ppm, read-out: CDM Obsd (observed effect, cucumber downy mildew)) of the same molecule?
**A.** 46%

**Q.** And the pest or weed control at 40 ppm ([2]; component (b) alone, 40 ppm, read-out: CDM Obsd (observed effect, cucumber downy mildew))?
**A.** 31%

**Q.** And the pest or weed control at 200 ppm ([2]; component (b) alone, 200 ppm, read-out: CDM Obsd (observed effect, cucumber downy mildew))?
**A.** 86%

**Q.** And the pest or weed control at 1000 ppm ([2]; component (b) alone, 1000 ppm, read-out: CDM Obsd (observed effect, cucumber downy mildew))?
**A.** 99%

**Q.** What about the pest or weed control at 5000 ppm ([2]; component (b) alone, 5000 ppm, read-out: CDM Obsd (observed effect, cucumber downy mildew)) of the same molecule?
**A.** 100%

**Q.** What does the source list for Cc1cc(C(F)(F)F)nn1CC(=O)N1CCC(c2nc(C3=NO[C@@H](c4c(F)cccc4F)C3)cs2)CC1 [Compound 214, 1-[4-[4-[(5R)-5-(2,6-difluorophenyl)-4,5-dihydro-3-isoxazolyl]-2-thiazolyl]-1-piperidinyl]-2-[5-methyl-3-(trifluoromethyl)-1H-pyrazol-1-yl]ethanone]?
**A.** pest or weed control at 0.001 ppm ([1]; read-out: TLB Obsd (observed effect, tomato late blight), Compound 214 alone, 0.001 ppm): 44%; pest or weed control at 0.01 ppm ([1]; read-out: TLB Obsd (observed effect, tomato late blight), Compound 214 alone, 0.01 ppm): 98%; pest or weed control at 0.1 ppm ([1]; read-out: TLB Obsd (observed effect, tomato late blight), Compound 214 alone, 0.1 ppm): 100%; pest or weed control at 0.001 ppm ([1]; read-out: TLB Obsd, Compound 214 alone, 0.001 ppm): 22%; pest or weed control at 0.01 ppm ([1]; read-out: TLB Obsd, Compound 214 alone, 0.01 ppm): 98%; pest or weed control at 0.1 ppm ([1]; read-out: TLB Obsd, Compound 214 alone, 0.1 ppm): 100%; pest or weed control at 0.001 ppm ([2]; Compound 214 alone, 0.001 ppm, read-out: CDM Obsd (observed effect, cucumber downy mildew)): 16%; pest or weed control at 0.01 ppm [2, 3]: 88%; pest or weed control at 0.01 ppm [2, 4]: 83%; pest or weed control at 0.1 ppm [2, 3]: 100%; pest or weed control at 0.1 ppm [2, 4]: 100%

**Q.** With CON=C(C(=O)OC)c1ccccc1CON=C(C)c1cccc(C(F)(F)F)c1 [trifloxystrobin] as the molecule, how does the pest or weed control at 0.4 ppm ([1]; read-out: TLB Obsd (disease control rating), Table C, component (b) alone 0.4 ppm) read?
**A.** 0%

**Q.** What about the pest or weed control at 2 ppm ([1]; read-out: TLB Obsd (disease control rating), Table C, component (b) alone 2 ppm) of the same molecule?
**A.** 40%

**Q.** And the pest or weed control at 10 ppm ([1]; read-out: TLB Obsd (disease control rating), Table C, component (b) alone 10 ppm)?
**A.** 26%

**Q.** What about the pest or weed control at 40 ppm ([1]; read-out: TLB Obsd (disease control rating), Table C, component (b) alone 40 ppm) of the same molecule?
**A.** 45%

**Q.** And the pest or weed control at 200 ppm ([1]; read-out: TLB Obsd (disease control rating), Table C, component (b) alone 200 ppm)?
**A.** 53%

**Q.** And the pest or weed control at 0.04 ppm ([1]; read-out: TLB Obsd, component (b) alone, 0.04 ppm)?
**A.** 0%

**Q.** And the pest or weed control at 2 ppm ([1]; read-out: TLB Obsd, component (b) alone, 2 ppm)?
**A.** 0%

**Q.** And the pest or weed control at 10 ppm ([1]; read-out: TLB Obsd, component (b) alone, 10 ppm)?
**A.** 72%

**Q.** What about the pest or weed control at 40 ppm ([1]; read-out: TLB Obsd, component (b) alone, 40 ppm) of the same molecule?
**A.** 38%

**Q.** What about the pest or weed control at 200 ppm ([1]; read-out: TLB Obsd, component (b) alone, 200 ppm) of the same molecule?
**A.** 25%

**Q.** And the pest or weed control at 0.4 ppm ([2]; Table C, component (b) alone 0.4 ppm, read-out: CDM Obsd (disease control rating))?
**A.** 47%

**Q.** What about the pest or weed control at 2 ppm ([2]; Table C, component (b) alone 2 ppm, read-out: CDM Obsd (disease control rating)) of the same molecule?
**A.** 47%

**Q.** What about the pest or weed control at 10 ppm ([2]; Table C, component (b) alone 10 ppm, read-out: CDM Obsd (disease control rating)) of the same molecule?
**A.** 58%

**Q.** And the pest or weed control at 40 ppm ([2]; Table C, component (b) alone 40 ppm, read-out: CDM Obsd (disease control rating))?
**A.** 94%

**Q.** What about the pest or weed control at 200 ppm ([2]; Table C, component (b) alone 200 ppm, read-out: CDM Obsd (disease control rating)) of the same molecule?
**A.** 100%

**Q.** What about the pest or weed control at 0.4 µg/mL ([2]; component (b) alone 0.4 ppm (Compound 1 0 ppm), read-out: CDM Obsd) of the same molecule?
**A.** 47%

**Q.** What about the pest or weed control at 2 µg/mL ([2]; component (b) alone 2 ppm (Compound 1 0 ppm), read-out: CDM Obsd) of the same molecule?
**A.** 47%

**Q.** What about the pest or weed control at 10 µg/mL ([2]; read-out: CDM Obsd) of the same molecule?
**A.** 57%

**Q.** And the pest or weed control at 40 µg/mL ([2]; read-out: CDM Obsd)?
**A.** 93%

**Q.** And the pest or weed control at 200 µg/mL ([2]; read-out: CDM Obsd)?
**A.** 100%

**Q.** And the pest or weed control at 0.04 ppm ([2]; component (b) alone, 0.04 ppm, read-out: CDM Obsd)?
**A.** 0%

**Q.** What about the pest or weed control at 2 ppm ([2]; component (b) alone, 2 ppm, read-out: CDM Obsd) of the same molecule?
**A.** 0%

**Q.** What about the pest or weed control at 10 ppm ([2]; component (b) alone, 10 ppm, read-out: CDM Obsd) of the same molecule?
**A.** 16%

**Q.** What about the pest or weed control at 40 ppm ([2]; component (b) alone, 40 ppm, read-out: CDM Obsd) of the same molecule?
**A.** 89%

**Q.** And the pest or weed control at 200 ppm ([2]; component (b) alone, 200 ppm, read-out: CDM Obsd)?
**A.** 100%
